# Read-outs that look alike come from different tables or passages of the source.
# Key:
# [1] = system: Pseudomonas aeruginosa; test: Antimicrobial activity, agar dilution method; assay type: cell-based
# Experimental: (§1) All p-terphenyls (1–7) were tested for their cytotoxicity against the L-02, MGC-803, HCT-116, BEL-7402, A549, SH-SY5Y, Hela, U87, K562, HL-60, HO8910, and MCF-7 cell lines using either the SRB or the MTT method with adriamycin as positive control. […] Recently, we have also reported nine prenylated p-terphenyls from Aspergillus candidus LDJ-5 [6]. Most of the prenylated p-terphenyls were cytotoxic. Additionally, comparing to prenylcandidusin B and prenylcandidusin C, compounds 2 and 3 were distinguished by the presence of one hydroxy group and the lack of the isoprenyl group on ring C (C-3″). […] The antimicrobial activities of compounds 1–7 were evaluated in vitro against Proteus species, Pseudomonas aeruginosa, Bacillus subtilis, B. cereus, and Mycobacterium phlei. […] Asperterphenyllin A (1) was also tested for antiviral activity and protein tyrosine phosphatase 1B (PTP1B) inhibitory activity. The antiviral activity of asperterphenyllin A (1) was evaluated against the influenza A virus (H1N1) using the cytopathic effect (CPE) inhibition assay. […] Protein tyrosine phosphatase 1B (PTP1B) has been reported to be a novel drug target for diabetes and obesity. It has also been considered to be involved in tumorigenesis.
# (§2) Antimicrobial activities were evaluated as previously reported by using the agar dilution method. The five microbial strains included Proteus sp., Pseudomonas aeruginosa, Bacillus subtilis, B. cereus, and Mycobacterium phlei. Ciprofloxacin was used as positive control. All strains were donated by the Qingdao municipal hospital.
# [2] = system: Proteus species; test: Antimicrobial activity, agar dilution method; assay type: cell-based
# Experimental: as §1, §2
# [3] = system: Bacillus cereus; test: Antimicrobial activity, agar dilution method; assay type: cell-based
# Experimental: as §1, §2
# [4] = system: Bacillus subtilis; test: Antimicrobial activity, agar dilution method; assay type: cell-based
# Experimental: as §1, §2
# [5] = system: Mycobacterium phlei; test: Antimicrobial activity, agar dilution method; assay type: cell-based; conditions: Mycolicibacterium phlei
# Experimental: as §1, §2
# [6] = system: influenza A virus (H1N1); test: Anti-influenza A viral (H1N1) CPE inhibition assay; assay type: cell-based
# Experimental: as §1
# The antiviral activity of compound 1 against influenza A virus (H1N1) was evaluated by the CPE inhibition assay. […]
# [7] = biological target: T1, protein tyrosine phosphatase 1B (PTP1B) (Homo sapiens, UniProt P18031); test: PTP1B inhibitory assay (pNPP hydrolysis); assay type: biochemical; conditions: pNPP substrate, room temperature
# T1 sequence (P18031 1-435): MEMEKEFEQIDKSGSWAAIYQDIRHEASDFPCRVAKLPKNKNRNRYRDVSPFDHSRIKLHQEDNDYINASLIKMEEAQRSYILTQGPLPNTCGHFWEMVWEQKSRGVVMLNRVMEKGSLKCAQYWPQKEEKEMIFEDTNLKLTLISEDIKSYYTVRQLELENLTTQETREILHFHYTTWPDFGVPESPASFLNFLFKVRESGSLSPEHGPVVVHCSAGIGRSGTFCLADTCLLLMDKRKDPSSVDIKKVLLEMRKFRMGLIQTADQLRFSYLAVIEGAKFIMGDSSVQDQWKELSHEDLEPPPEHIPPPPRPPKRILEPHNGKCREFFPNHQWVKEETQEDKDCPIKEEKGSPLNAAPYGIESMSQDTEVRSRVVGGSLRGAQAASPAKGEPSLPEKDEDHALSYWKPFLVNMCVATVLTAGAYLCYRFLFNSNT
# [8] = system: L-02, MGC-803, HCT-116, BEL-7402, A549, SH-SY5Y, Hela, U87, K562, HL-60, HO8910, and MCF-7 cell lines; test: Cytotoxicity against the panel of cell lines (SRB or MTT method); assay type: cell-based, human; conditions: for IC50: Homo sapiens; for cytotoxicity effects: compared with prenylcandidusins on K562
# Experimental: as §1
# (§3) The cytotoxicity of 1–7 and positive control was evaluated against human leukemia cell lines K562 and HL-60 (using the MTT method), human normal liver cell line L-02, human gastric cancer cell lines MGC-803, human colon cancer lines HCT-116, human hepatocacinoma cell line BEL-7402, human lung cancer cell lines A549, human neuroblastoma cell line SH-SY5Y, human cervical cancer cell lines HeLa, human glioma cell lines U87, human ovarian cancer cell lines HO-8910, and human breast cancer cell lines MCF-7 (using the SRB method). Adriamycin was used as positive control. The detailed methodologies for biological testing have been described in previous reports. All the cell lines were purchased from the Institute of Biochemistry and Cell Biology, Chinese Academy of Sciences (Shanghai, China).
# [9] = system: Hela cell line; test: Cytotoxicity, SRB method; assay type: cell-based; conditions: Hela human cervical cancer cell line
# Experimental: as §1, §3
# [10] = Cytotoxicity, SRB method; assay type: cell-based; conditions: L-02 normal liver cells, L-02 human normal liver cell line
# Experimental: as §1, §3
# [11] = system: A549 cell line; test: Cytotoxicity, SRB method; assay type: cell-based; conditions: A549 human lung cancer cell line
# Experimental: as §1, §3
# [12] = system: HO8910 cell line; test: Cytotoxicity, SRB method; assay type: cell-based; conditions: HO-8910, HO8910 human ovarian cancer cell line
# Experimental: as §1, §3
# [13] = system: HCT-116 cell line; test: Cytotoxicity, SRB method; assay type: cell-based; conditions: HCT-116 human colon cancer cell line
# Experimental: as §1, §3
# [14] = system: U87 cell line; test: Cytotoxicity, SRB method; assay type: cell-based; conditions: U-87 MG, U87 human glioma cell line
# Experimental: as §1, §3
# [15] = system: MGC-803 cell line; test: Cytotoxicity, SRB method; assay type: cell-based; conditions: MGC-803 human gastric cancer cell line
# Experimental: as §1, §3
# [16] = system: SH-SY5Y cell line; test: Cytotoxicity, SRB method; assay type: cell-based; conditions: SH-SY5Y human neuroblastoma cell line
# Experimental: as §1, §3
# [17] = system: BEL-7402 cell line; test: Cytotoxicity, SRB method; assay type: cell-based; conditions: BEL-7402 human hepatocarcinoma cell line
# Experimental: as §1, §3
# [18] = system: K562 cell lines; set-up: method as in PMID 31827255; conditions: cited from earlier work
# [19] = all twelve tested cell lines, SRB or MTT, read-out: IC50 against all tested cell lines
SMILES,MIC [1],MIC [2],MIC [3],MIC [4],MIC [5],"IC50 [8, 19]",also measured
"O=C(O)c1cn(C2CC2)c2cc(N3CCNCC3)c(F)cc2c1=O [Ciprofloxacin, reference compound]",0.52 µg/mL,0.26 µg/mL,2.07 µg/mL,4.14 µg/mL,0.52 µg/mL,–,–
"COc1c(-c2ccc(O)c(O)c2)cc(OC)c2c1oc1c(-c3c(O)c(O)cc4c3oc3c(OC)c(-c5ccc(O)c(O)c5)cc(OC)c34)c(O)c(O)cc12 [Compound 1, Asperterphenyllin A]",> 200 µg/mL,> 200 µg/mL,> 200 µg/mL,> 200 µg/mL,> 200 µg/mL,> 50000 nM,"IC50 ([6]; H1N1, CPE inhibition assay, read-out: IC50 anti-influenza virus A (H1N1) activity): 53000 nM; IC50 [7]: 21000 nM"
"COc1cc2oc3c(OC)c(-c4ccc(O)c(O)c4)cc(OC)c3c2cc1OC [Compound 2, Asperterphenyllin B]",40 µg/mL,> 200 µg/mL,> 200 µg/mL,> 200 µg/mL,79 µg/mL,> 50000 nM,cytotoxicity effects [8]: did not show any cytotoxicity effects
"COc1cc2oc3c(OC)c(-c4ccc(O)c(O)c4)cc(OC)c3c2cc1O [Compound 3, Asperterphenyllin C]",> 200 µg/mL,19 µg/mL,> 200 µg/mL,38 µg/mL,38 µg/mL,> 50000 nM,cytotoxicity effects [8]: did not show any cytotoxicity effects
"COc1cc(-c2ccc(O)cc2)c(OC)c(OC)c1-c1ccc(O)c(O)c1 [Compound 4, Asperterphenyllin D]",> 200 µg/mL,> 200 µg/mL,70 µg/mL,> 200 µg/mL,> 200 µg/mL,> 50000 nM,–
"COc1cc(-c2c(OC)cc(-c3ccccc3)c(OC)c2O)ccc1O [Compound 5, Asperterphenyllin E]",70 µg/mL,35 µg/mL,70 µg/mL,70 µg/mL,70 µg/mL,> 50000 nM,–
"COc1cc(-c2ccc(O)c(O)c2)c(OC)c(O)c1-c1ccccc1 [Compound 6, Asperterphenyllin F]",> 200 µg/mL,> 200 µg/mL,> 200 µg/mL,> 200 µg/mL,> 200 µg/mL,> 50000 nM,–
"COc1cc(-c2ccc(O)cc2)c(OC)c(O)c1-c1ccc(OC/C=C(\C)CO)c(O)c1 [Compound 7, Asperterphenyllin G]",> 200 µg/mL,> 200 µg/mL,87 µg/mL,> 200 µg/mL,> 200 µg/mL,–,IC50 ([8]; read-out: IC50 values against nine cell lines (range)): 400 to 1700 nM; IC50 [9]: 1700 nM; IC50 [10]: 1700 nM; IC50 [11]: 400 nM; IC50 [12]: 1300 nM; IC50 [13]: 800 nM; IC50 [14]: 900 nM; IC50 [15]: 1000 nM; IC50 [16]: 600 nM; IC50 [17]: 6000 nM
COc1cc2oc3c(OC)c(-c4ccc(O)c(CC=C(C)C)c4)cc(OC)c3c2cc1OC [Prenylcandidusin B],–,–,–,–,–,–,inhibitory activity against K562 cell lines [18]: moderate inhibitory activity
COc1cc2oc3c(OC)c(-c4ccc(O)c(CC=C(C)C)c4)cc(OC)c3c2cc1O [prenylcandidusin C],–,–,–,–,–,–,inhibitory activity against K562 cell lines [18]: moderate inhibitory activity
"NC(=O)c1ncn([C@@H]2O[C@H](CO)[C@@H](O)[C@H]2O)n1 [ribavirin, reference compound]",–,–,–,–,–,–,"IC50 ([6]; H1N1, read-out: IC50 anti-influenza virus A (H1N1) activity): 35000 nM"

# — paper PMC7912881, “Polyhydroxy p-Terphenyls from a Mangrove Endophytic Fungus Aspergillus candidus LDJ-5” (Marine Drugs, 2021)
